Assay results published in PubChem BioAssay (NCI).
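All cell lines were grown in 96-well plates and treated with compound for 48 hours. TGI: total growth inhibition.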

Key:
Assay in all cases: growth of human tumour cells (NCI), 48 h
CCRF-CEM leukemia = tested on: CCRF-CEM leukemia
MDA-N = tested on: MDA-N
SNB-19 CNS = tested on: SNB-19 CNS
NCI-H226 lung = tested on: NCI-H226 lung
NCI-H23 lung = tested on: NCI-H23 lung
786-0 renal = tested on: 786-0 renal
UACC-257 melanoma = tested on: UACC-257 melanoma
OVCAR-8 ovarian = tested on: OVCAR-8 ovarian
DU-145 prostate = tested on: DU-145 prostate
MCF7 breast = tested on: MCF7 breast
SN12C renal = tested on: SN12C renal
HOP-62 NSCLC = tested on: HOP-62 NSCLC
SF-295 CNS = tested on: SF-295 CNS
RXF 393 renal = tested on: RXF 393 renal
SNB-75 CNS = tested on: SNB-75 CNS
HCT-116 colon = tested on: HCT-116 colon
K-562 leukemia = tested on: K-562 leukemia
OVCAR-5 ovarian = tested on: OVCAR-5 ovarian
HOP-92 NSCLC = tested on: HOP-92 NSCLC
RPMI-8226 leukemia = tested on: RPMI-8226 leukemia
SF-268 CNS = tested on: SF-268 CNS
BT-549 breast = tested on: BT-549 breast
A549 NSCLC = tested on: A549 NSCLC
HCT-15 colon = tested on: HCT-15 colon
T-47D breast = tested on: T-47D breast
A498 renal = tested on: A498 renal
IGROV1 ovarian = tested on: IGROV1 ovarian
ACHN renal = tested on: ACHN renal
MOLT-4 leukemia = tested on: MOLT-4 leukemia
SK-MEL-2 melanoma = tested on: SK-MEL-2 melanoma
U251 CNS = tested on: U251 CNS
NCI/ADR-RES ovarian = tested on: NCI/ADR-RES ovarian
CAKI-1 renal = tested on: CAKI-1 renal
UACC-62 melanoma = tested on: UACC-62 melanoma
MDA-MB-435 = tested on: MDA-MB-435
M14 melanoma = tested on: M14 melanoma
COLO 205 colon = tested on: COLO 205 colon
OVCAR-4 ovarian = tested on: OVCAR-4 ovarian
HS 578T breast = tested on: HS 578T breast
UO-31 renal = tested on: UO-31 renal
SK-MEL-5 melanoma = tested on: SK-MEL-5 melanoma
SK-MEL-28 melanoma = tested on: SK-MEL-28 melanoma
TK-10 renal = tested on: TK-10 renal
SK-OV-3 ovarian = tested on: SK-OV-3 ovarian
SR leukemia = tested on: SR leukemia
HT29 colon = tested on: HT29 colon
SF-539 CNS = tested on: SF-539 CNS
EKVX NSCLC = tested on: EKVX NSCLC
MDA-MB-231 breast = tested on: MDA-MB-231 breast
PC-3 prostate = tested on: PC-3 prostate
LOX IMVI melanoma = tested on: LOX IMVI melanoma
MALME-3M melanoma = tested on: MALME-3M melanoma
OVCAR-3 ovarian = tested on: OVCAR-3 ovarian
NCI-H522 lung = tested on: NCI-H522 lung
SW-620 colon = tested on: SW-620 colon
KM12 colon = tested on: KM12 colon
NCI-H460 lung = tested on: NCI-H460 lung

## CCCCCCCCCCCCOC1C(COCCN2CCCC2)OC2OC(C)(C)OC21 (centres undefined)
CCRF-CEM leukemia
  TGI: 5.39 µM
MDA-N
  TGI: 2.76 µM
SNB-19 CNS
  TGI: 10.2 µM
NCI-H226 lung
  TGI: 7.62 µM
NCI-H23 lung
  TGI: 3.48 µM
786-0 renal
  TGI: 3.08 µM
UACC-257 melanoma
  TGI: 3.14 µM
OVCAR-8 ovarian
  TGI: 3.03 µM
DU-145 prostate
  TGI: 23.1 µM
MCF7 breast
  TGI: 3.1 µM
SN12C renal
  TGI: 3.24 µM
HOP-62 NSCLC
  TGI: 3.2 µM
SF-295 CNS
  TGI: 3.28 µM
RXF 393 renal
  TGI: 3.17 µM
SNB-75 CNS
  TGI: 3.75 µM
HCT-116 colon
  TGI: 3.13 µM
K-562 leukemia
  TGI: 2.7 µM
OVCAR-5 ovarian
  TGI: 2.88 µM
HOP-92 NSCLC
  TGI: 2.72 µM
RPMI-8226 leukemia
  TGI: 12.1 µM
SF-268 CNS
  TGI: 4.44 µM
BT-549 breast
  TGI: 3.22 µM
A549 NSCLC
  TGI: 16.1 µM
HCT-15 colon
  TGI: 3.17 µM
T-47D breast
  TGI: 4.11 µM
A498 renal
  TGI: 27.9 µM
IGROV1 ovarian
  TGI: 3.1 µM
ACHN renal
  TGI: 11.2 µM
MOLT-4 leukemia
  TGI: 10.4 µM
SK-MEL-2 melanoma
  TGI: 3.09 µM
U251 CNS
  TGI: 3.12 µM
NCI/ADR-RES ovarian
  TGI: 4.37 µM
CAKI-1 renal
  TGI: 3.04 µM
UACC-62 melanoma
  TGI: 3.36 µM
MDA-MB-435
  TGI: 3.14 µM
M14 melanoma
  TGI: 3.25 µM
COLO 205 colon
  TGI: 3.22 µM
OVCAR-4 ovarian
  TGI: 7.6 µM
HS 578T breast
  TGI: 3.51 µM
UO-31 renal
  TGI: 2.96 µM
SK-MEL-5 melanoma
  TGI: 2.95 µM
SK-MEL-28 melanoma
  TGI: 3.12 µM
TK-10 renal
  TGI: 3.03 µM
SK-OV-3 ovarian
  TGI: 3.33 µM
SR leukemia
  TGI: 2.91 µM
HT29 colon
  TGI: 2.98 µM
SF-539 CNS
  TGI: 3.17 µM
EKVX NSCLC
  TGI: 10.2 µM
MDA-MB-231 breast
  TGI: 2.92 µM
PC-3 prostate
  TGI: 3.16 µM
LOX IMVI melanoma
  TGI: 2.77 µM
MALME-3M melanoma
  TGI: 3.35 µM
OVCAR-3 ovarian
  TGI: 3.05 µM
NCI-H522 lung
  TGI: 2.53 µM

## COc1cc(S(=O)(=O)Nc2nc(-c3ccc(N4C(=O)/C(=C/c5ccccc5)N=C4c4ccccc4)cc3)cs2)ccc1Cl
CCRF-CEM leukemia
  TGI: > 100 µM
MDA-N
  TGI: > 100 µM
SNB-19 CNS
  TGI: > 100 µM
SW-620 colon
  TGI: > 100 µM
NCI-H226 lung
  TGI: > 100 µM
NCI-H23 lung
  TGI: 80.4 µM
KM12 colon
  TGI: > 100 µM
786-0 renal
  TGI: > 100 µM
UACC-257 melanoma
  TGI: > 100 µM
OVCAR-8 ovarian
  TGI: > 100 µM
DU-145 prostate
  TGI: > 100 µM
MCF7 breast
  TGI: > 100 µM
SN12C renal
  TGI: > 100 µM
HOP-62 NSCLC
  TGI: > 100 µM
SF-295 CNS
  TGI: > 100 µM
RXF 393 renal
  TGI: 91.7 µM
SNB-75 CNS
  TGI: > 100 µM
HCT-116 colon
  TGI: > 100 µM
K-562 leukemia
  TGI: > 100 µM
OVCAR-5 ovarian
  TGI: > 100 µM
HOP-92 NSCLC
  TGI: > 100 µM
SF-268 CNS
  TGI: > 100 µM
BT-549 breast
  TGI: 75 µM
A549 NSCLC
  TGI: > 100 µM
HCT-15 colon
  TGI: > 100 µM
T-47D breast
  TGI: > 100 µM
A498 renal
  TGI: > 100 µM
IGROV1 ovarian
  TGI: > 100 µM
ACHN renal
  TGI: > 100 µM
NCI-H460 lung
  TGI: > 100 µM
MOLT-4 leukemia
  TGI: > 100 µM
SK-MEL-2 melanoma
  TGI: 84.8 µM
U251 CNS
  TGI: > 100 µM
NCI/ADR-RES ovarian
  TGI: > 100 µM
CAKI-1 renal
  TGI: > 100 µM
UACC-62 melanoma
  TGI: 50.8 µM
MDA-MB-435
  TGI: > 100 µM
M14 melanoma
  TGI: > 100 µM
COLO 205 colon
  TGI: > 100 µM
OVCAR-4 ovarian
  TGI: > 100 µM
HS 578T breast
  TGI: 93.6 µM
UO-31 renal
  TGI: > 100 µM
SK-MEL-5 melanoma
  TGI: > 100 µM
SK-MEL-28 melanoma
  TGI: > 100 µM
TK-10 renal
  TGI: > 100 µM
SK-OV-3 ovarian
  TGI: > 100 µM
SR leukemia
  TGI: > 100 µM
HT29 colon
  TGI: > 100 µM
SF-539 CNS
  TGI: > 100 µM
MDA-MB-231 breast
  TGI: 70.1 µM
PC-3 prostate
  TGI: > 100 µM
LOX IMVI melanoma
  TGI: > 100 µM
MALME-3M melanoma
  TGI: 83.6 µM
OVCAR-3 ovarian
  TGI: > 100 µM
NCI-H522 lung
  TGI: > 100 µM
